# In patent publication US20260200976A1, “PEPTIDE HAVING ACTIVITY OF IMPROVING STATE OF SKIN, AND USE THEREOF” (CAREGEN CO., LTD., priority 2022, published 2026):
# How the values were obtained:
# HaCaT cells [1] = experiment: Inhibition of apoptosis induced by ultraviolet rays, MTT survival rate, HaCaT; assay type: cell-based; conditions: 50 μM or 100 μM peptide, 15 m J/cm2 ultraviolet rays, FIG. 7
# Description: (§1) In this example, the aim was to confirm the effect of the peptide according to an example on the inhibition of apoptosis or cell recovery of skin cells induced by ultraviolet rays, by evaluating the change in survival rate of skin cells whose apoptosis was induced by ultraviolet irradiation.
# (§2) Specifically, NIH3T3 cells or HaCaT cells were seeded in a 96-well plate at a density of 1×10^4 cells/well and cultured for 24 hours. Next, the cells were washed once with serum-free DMEM media, and 50 μM or 100 μM of the peptide consisting of an amino acid sequence of SEQ ID NO: 1 was dispensed into 200 μL of the medium. The culture medium dispensed with the peptide was cultured in a CO2 incubator at 37° C. for 1 hour, transferred to an e-tube, mixed with 100 ul of PBS, and dispensed into a well plate. Next, using a UV irradiator (VILBER LOURMAT, Cat No.: 3102-BSU, France), 6 J/cm2 ultraviolet rays were irradiated to NIH3T3 cells, and […] ultraviolet rays were irradiated to HaCaT cells. Next, PBS in the well plate was removed, MTT (Sigma, Cat. No.: M2003, USA) solution was dispensed into each well at 0.5 mg/ml, and cultured in a CO2 incubator at 37° C. for […]. Next, the absorbance of the culture was measured at 540 nm using a microplate reader (Molecular Devices, USA). […]
# elastin = experiment: Expression of extracellular matrix component elastin, RT-PCR in NIH3T3 cells; assay type: cell-based, mouse; conditions: 10 μM or 50 μM peptide, 24 hours, FIG. 2 and FIG. 3
# Description: (§3) In this example, the aim was to confirm the effect of the peptide according to an example on improving endogenous skin aging, including improvement of wrinkles and enhancement of elasticity, etc., by evaluating the expression levels of collagen type 1 (Col1a1), fibronectin, and elastin, which are known components of the dermis.
# (§4) Specifically, NIH3T3 cells were seeded in a 6-well plate at a density of 3×10^5 cells/well and cultured for 24 hours. Next, the cells were washed once with serum-free DMEM media, and 10 μM or 50 μM of a peptide consisting of an amino acid sequence of SEQ ID NO: 1 was dispensed into 1 mL of the serum-free media, and cultured in a CO2 incubator at 37° C. for 24 hours. Next, the culture was washed twice with PBS, and RNA was isolated from the culture using easy blue (iNtRON, Cat. No.: 17061, Korea). Next, using an RT kit (Enzynomics, Cat. NO.: RT200, Korea), the isolated RNA was reverse transcribed to synthesize the respective cDNA. Next, using the synthesized 1 μg cDNA, primers for Col1a1, fibronectin, or elastin, and a PCR kit (Enzynomics, Cat. No.: P581T, Korea), polymerase chain reaction (PCR) was performed. Meanwhile, in this example, an untreated group was used as a control group, and a group to which TGF-β1 was added was used as a positive control group, the nucleotide sequences of the primers used in this example are shown in Table 2 below.
# NIH3T3 cells [2] = experiment: Proliferation of skin cells, MTT survival rate; assay type: cell-based, mouse; conditions: 50 μM or 100 μM peptide, 72 hours, FIG. 1
# Description: In this example, the aim was to confirm the effect of a peptide according to an example on proliferation of skin cells, by evaluating changes in survival rate of NIH3T3 cells, which are mouse fibroblasts.
# Specifically, NIH3T3 cells were seeded in a […] at a density of 1×10^4 cells/well and cultured for 24 hours. Next, the cells were washed once with serum-free DMEM media, and 50 μM or 100 μM of a peptide consisting of an amino acid sequence of SEQ ID NO: 1 was dispensed into 200 μL of the serum-free media, and cultured in a CO2 incubator at 37° C. for 72 hours. Next, the culture was washed twice with PBS, and MTT solution was dispensed into each well at a concentration of 0.5 mg/ml. Next, it was shaded from light and cultured in a CO2 incubator at 37° C. for 4 hours, and the absorbance at 540 nm was measured using a microplate reader (Molecular Devices, USA).
# NIH3T3 cells [3] = experiment: Reduction of reactive oxygen species increased by ultraviolet rays, DCF-DA flow cytometry, NIH3T3; assay type: cell-based, mouse; conditions: 50 μM or 1000 μM peptide, 6 J/cm2 ultraviolet rays, 24 hours, FL1 fluorescence, FIG. 8
# Description: (§5) In this example, the aim was to confirm the effect of the peptide according to an embodiment on the antioxidant effect in damaged skin, by evaluating the change in the level of reactive oxygen species in skin cells increased by ultraviolet irradiation.
# (§6) Specifically, NIH3T3 cells or HaCaT cells were seeded in a 6-well plate at a density of 5×10^5 cells/well and cultured for 24 hours. Next, the cells were washed once with serum-free DMEM media, and 50 μM or 1000 μM of a peptide consisting of an amino acid sequence of SEQ ID NO: 1 was dispensed into 1 mL of the serum-free media, and cultured in a CO2 incubator at 37° C. for […]. Next, the above culture was transferred to an e-tube, mixed with 1 ml of PBS, and dispensed into a well plate. Next, using a UV irradiator (VILBER LOURMAT, Cat No.: 3102-BSU, France), 6 J/cm2 ultraviolet rays were irradiated to NIH3T3 cells, and 15 J/cm2 ultraviolet rays were irradiated to HaCaT cells. Next, the PBS in the well plate was removed, 900 μL of the culture medium in which the peptides were dispensed was added, and the plate was cultured in a CO2 incubator at 37° C. for 24 hours. […] After washing the centrifuged cells with PBS, FL1 fluorescence values were measured through flow cytometry (FACS, BD, USA). […]
# fibronectin = experiment: Expression of extracellular matrix component fibronectin, RT-PCR in NIH3T3 cells; assay type: cell-based, mouse; conditions: 10 μM or 50 μM peptide, 24 hours, FIG. 2 and FIG. 3
# Description: as §3, §4
# collagen type 1 (Col1a1) = experiment: Expression of extracellular matrix component Col1a1, RT-PCR in NIH3T3 cells; assay type: cell-based, mouse; conditions: 10 μM or 50 μM peptide, 24 hours, FIG. 2 and FIG. 3
# Description: as §3, §4
# aquaporin-3 (AQP3) = experiment: Expression of skin barrier factor AQP3, RT-PCR in HaCaT cells; assay type: cell-based; conditions: 50 μM or 1000 μM peptide, 24 hours, FIG. 4 and FIG. 5
# Description: (§7) In this example, the aim was to confirm the effect of the peptides according to an example on strengthening the skin barrier, by evaluating the expression levels of sirtuin-1 (SIRT-1) or aquaporin-3 (AQP3).
# (§8) Specifically, HaCaT cells were seeded in a 6-well plate at a density of 3×10^5 cells/well and cultured for 24 hours. Next, the cells were washed once with serum-free DMEM media, and 50 μM or 1000 μM of a peptide consisting of an amino acid sequence of SEQ ID NO: 1 was dispensed into 1 mL of the serum-free media, and cultured in a CO2 incubator at 37° C. for 24 hours. Next, the culture was washed twice with PBS, and RNA was isolated from the culture using easy blue (iNtRON, Cat. No.: 17061, Korea). Next, using an RT kit (Enzynomics, Cat. NO.: RT200, Korea), the isolated RNA was reverse transcribed to synthesize the respective cDNA. Next, using the synthesized 1 μg cDNA, primers for SIRT-1 or AQP3, and a PCR kit (Enzynomics, Cat. No.: P581T, Korea), polymerase chain reaction (PCR) was performed. Meanwhile, in this example, an untreated group was used as a control group, and a group to which EGF was added was used as a positive control group, the nucleotide sequences of the primers used in this example are shown in Table 3 below.
# HaCaT cells [4] = experiment: Reduction of reactive oxygen species increased by ultraviolet rays, DCF-DA flow cytometry, HaCaT; assay type: cell-based; conditions: 50 μM or 1000 μM peptide, 15 J/cm2 ultraviolet rays, 24 hours, FL1 fluorescence, FIG. 9
# Description: as §5, §6
# sirtuin-1 (SIRT-1) = experiment: Expression of skin barrier factor SIRT-1, RT-PCR in HaCaT cells; assay type: cell-based; conditions: 50 μM or 1000 μM peptide, 24 hours, FIG. 4 and FIG. 5
# Description: as §7, §8
# NIH3T3 cells [5] = experiment: Inhibition of apoptosis induced by ultraviolet rays, MTT survival rate, NIH3T3; assay type: cell-based, mouse; conditions: 50 μM or 100 μM peptide, 6 J/cm2 ultraviolet rays, FIG. 6
# Description: as §1, §2
substance,measurement,setting,value
EVVDI [SEQ ID NO: 1],cell survival rate of keratinocytes reduced by ultraviolet irradiation,HaCaT cells [1],restored
same,expression of elastin,elastin,increased
same,proliferation of fibroblasts (cell survival rate),NIH3T3 cells [2],promoted
same,level of reactive oxygen species in fibroblasts increased by ultraviolet irradiation,NIH3T3 cells [3],reduced
same,expression of fibronectin,fibronectin,increased
same,expression of Col1a1,collagen type 1 (Col1a1),increased
same,expression of AQP3,aquaporin-3 (AQP3),increased
same,level of reactive oxygen species in keratinocytes increased by ultraviolet irradiation,HaCaT cells [4],reduced
same,expression of SIRT-1,sirtuin-1 (SIRT-1),increased
same,cell survival rate of fibroblasts reduced by ultraviolet irradiation,NIH3T3 cells [5],restored
